Laboratory results taken from article PMC10641818, “Development of First-in-Class Dual Sirt2/HDAC6 Inhibitors as Molecular Tools for Dual Inhibition of Tubulin Deacetylation” (Journal of Medicinal Chemistry, 2023).
Blank lines part the entries; values can stand above or below the molecule they belong to.

What was measured:
Sirt2 (demyristoylation) = molecular target: T1, Sirt2 (demyristoylation) (Homo sapiens, UniProt Q8IXJ6); assay: Discontinuous Sirt2 demyristoylation assay (ZMML substrate); assay type: biochemical; conditions: for IC50: mean ± SD
T1 construct: the respective sirtuin (Sirt1_134–747, Sirt2_56–356, or Sirt3_118–395) was mixed with; made in house; host or cells: Escherichia coli BL21 Star (DE3)
T1 sequence (Q8IXJ6 56-356): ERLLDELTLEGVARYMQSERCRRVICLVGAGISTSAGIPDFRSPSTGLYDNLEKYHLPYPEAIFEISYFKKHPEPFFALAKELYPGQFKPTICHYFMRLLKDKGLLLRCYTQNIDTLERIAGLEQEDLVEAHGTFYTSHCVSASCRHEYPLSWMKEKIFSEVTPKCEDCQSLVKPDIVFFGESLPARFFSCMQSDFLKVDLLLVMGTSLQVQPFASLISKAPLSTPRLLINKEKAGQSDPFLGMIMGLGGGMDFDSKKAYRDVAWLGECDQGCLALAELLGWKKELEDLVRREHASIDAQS

Sirt3 = molecular target: T2, Sirt3 (Homo sapiens, UniProt Q9NTG7); assay: Sirt3 in vitro deacetylation assay (ZMAL); assay type: biochemical
T2 construct: the respective sirtuin (Sirt1_134–747, Sirt2_56–356, or Sirt3_118–395) was mixed with; made in house; host or cells: Escherichia coli BL21 Star (DE3)
T2 sequence (Q9NTG7 118-395): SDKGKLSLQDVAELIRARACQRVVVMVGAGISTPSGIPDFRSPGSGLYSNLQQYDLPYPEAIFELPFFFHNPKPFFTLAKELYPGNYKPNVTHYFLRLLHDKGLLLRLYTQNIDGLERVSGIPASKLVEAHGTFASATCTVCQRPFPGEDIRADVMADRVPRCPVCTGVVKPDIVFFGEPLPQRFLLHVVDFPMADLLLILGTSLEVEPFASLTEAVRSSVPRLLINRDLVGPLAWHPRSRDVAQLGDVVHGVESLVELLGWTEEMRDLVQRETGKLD

HDAC6 = molecular target: T3, HDAC6 (Homo sapiens, UniProt Q9UBN7); assay: HDAC6 in vitro deacetylation assay (ZMAL); assay type: biochemical; design: purchased BPS Bioscience 50006; conditions: deacetylation, mean ± SD
T3 sequence (Q9UBN7 1-1215): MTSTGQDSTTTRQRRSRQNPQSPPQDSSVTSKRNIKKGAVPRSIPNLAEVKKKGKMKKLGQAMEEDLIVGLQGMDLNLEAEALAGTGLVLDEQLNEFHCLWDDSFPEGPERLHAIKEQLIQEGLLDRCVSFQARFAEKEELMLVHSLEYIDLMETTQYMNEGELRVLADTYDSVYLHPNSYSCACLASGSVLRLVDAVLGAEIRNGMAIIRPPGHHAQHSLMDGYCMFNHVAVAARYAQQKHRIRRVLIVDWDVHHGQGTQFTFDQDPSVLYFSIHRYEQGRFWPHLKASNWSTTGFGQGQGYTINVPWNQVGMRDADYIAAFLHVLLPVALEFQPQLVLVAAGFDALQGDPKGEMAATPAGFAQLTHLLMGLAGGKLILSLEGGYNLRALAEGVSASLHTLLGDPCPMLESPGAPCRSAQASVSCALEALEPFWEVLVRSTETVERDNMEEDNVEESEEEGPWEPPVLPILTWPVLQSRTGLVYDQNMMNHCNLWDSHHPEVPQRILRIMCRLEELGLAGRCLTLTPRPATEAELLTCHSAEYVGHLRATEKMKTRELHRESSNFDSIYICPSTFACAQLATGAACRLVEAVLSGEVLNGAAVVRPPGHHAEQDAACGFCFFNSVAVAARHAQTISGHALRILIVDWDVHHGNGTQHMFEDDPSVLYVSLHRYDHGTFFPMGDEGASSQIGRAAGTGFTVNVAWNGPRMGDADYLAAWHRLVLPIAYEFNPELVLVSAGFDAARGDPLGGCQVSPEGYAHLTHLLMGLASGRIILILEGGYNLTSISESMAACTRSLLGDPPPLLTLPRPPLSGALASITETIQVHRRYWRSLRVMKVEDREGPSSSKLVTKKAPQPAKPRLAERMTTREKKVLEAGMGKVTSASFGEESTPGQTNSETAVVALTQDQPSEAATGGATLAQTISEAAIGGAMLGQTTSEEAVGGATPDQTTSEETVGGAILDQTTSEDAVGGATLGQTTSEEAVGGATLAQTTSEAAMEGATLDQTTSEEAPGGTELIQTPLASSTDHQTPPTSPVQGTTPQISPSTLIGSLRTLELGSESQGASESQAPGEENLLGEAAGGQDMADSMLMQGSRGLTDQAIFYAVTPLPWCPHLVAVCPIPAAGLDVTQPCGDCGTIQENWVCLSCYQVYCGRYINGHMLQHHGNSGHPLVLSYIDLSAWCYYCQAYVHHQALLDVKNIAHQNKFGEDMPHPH

Sirt1 = molecular target: T4, Sirt1 (Homo sapiens, UniProt Q96EB6); assay: Sirt1 in vitro deacetylation assay (ZMAL); assay type: biochemical
T4 construct: the respective sirtuin (Sirt1_134–747, Sirt2_56–356, or Sirt3_118–395) was mixed with; made in house; host or cells: Escherichia coli BL21 Star (DE3)
T4 sequence (Q96EB6 134-747): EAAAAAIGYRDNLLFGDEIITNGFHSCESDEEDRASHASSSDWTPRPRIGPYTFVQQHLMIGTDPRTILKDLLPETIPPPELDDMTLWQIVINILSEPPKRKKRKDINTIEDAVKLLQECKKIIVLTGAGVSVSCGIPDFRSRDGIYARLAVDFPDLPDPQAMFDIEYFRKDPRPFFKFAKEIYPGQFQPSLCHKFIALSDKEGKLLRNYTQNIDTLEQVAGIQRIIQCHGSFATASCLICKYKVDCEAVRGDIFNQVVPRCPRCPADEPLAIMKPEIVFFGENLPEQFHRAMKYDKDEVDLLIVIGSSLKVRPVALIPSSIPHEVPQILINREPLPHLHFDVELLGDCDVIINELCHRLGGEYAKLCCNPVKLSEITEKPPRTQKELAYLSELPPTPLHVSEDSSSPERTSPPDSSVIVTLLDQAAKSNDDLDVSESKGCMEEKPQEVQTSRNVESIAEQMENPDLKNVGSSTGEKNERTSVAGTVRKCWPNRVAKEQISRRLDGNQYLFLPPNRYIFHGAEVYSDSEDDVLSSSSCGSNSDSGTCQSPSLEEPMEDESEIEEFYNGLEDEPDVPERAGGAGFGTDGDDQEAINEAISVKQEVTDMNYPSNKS

[1] = test system: MCF-7 breast cancer cells; assay: Cell viability assay (MTT) MCF-7; assay type: cell-based; conditions: 72 h; for MCF-7 cellular effect: @ 50 μM
Procedure: (§1) Cell viability assays of HGC27 and PC-3M-luc cells were performed by using the Celltiter 96 Aqueous Nonradioactive Proliferation Assay (Promega). Cells were seeded in sterile 96-well plates at a density of 2000 cells per well and incubated overnight at 37 °C and 5% CO2. Compound or vehicle were added to a final concentration of 0.5% DMSO. […] Cells were seeded at densities of 10^4 cells/well for W1 cells or 2 × 10^3 cells/well for MCF-7 cells. Tests were performed in 96-well plates (Sarstedt AG, Nümbrecht, Germany). After incubation overnight, cells were supplemented with half logarithmic dilution series of the indicated compounds and DPBS (PAN Biotech GmbH, Aidenbach, Germany) as control. Then 72 h after addition of cytostatic treatment, the MTT solution (20 μL, 5 mg/mL) was added into the wells for 1 h at 37 °C and 5% CO2 until formazan crystals were formed. The supernatant was removed, and the cells were dissolved in 200 μL of DMSO. Absorption was analyzed at 570 nm, with background subtraction at 690 nm, using a plate reader (Thermomultiscan EX, Thermo, Schwerte, Germany). Cell viability was then determined by nonlinear regression and a four-parameter logistic equation with variable hill slope. […] The significance of the difference of the effects of 33 and 4 + 57 was determined by using an unpaired, two-tailed t test with Welch’s correction, implemented in GraphPad Prism 8.4.0 (GraphPad, USA). Statistical significance was accepted if p < 0.05. Asterisks indicate *p < 0.05, **p < 0.01.

[2] = test system: PC-3M-luc prostate cancer cells; assay: Cell viability assay (MTS) PC-3M-luc; assay type: cell-based; conditions: 72 h; for PC-3M-luc cellular effect: @ 50 μM
Procedure: as §1

[3] = test system: HGC27 gastric carcinoma cells; assay: Cell viability assay (MTS) HGC27; assay type: cell-based; conditions: 72 h; for HGC27 cellular effect: @ 50 μM
Procedure: as §1

W1 ovarian cancer cells = assay: Cell viability assay (MTT) W1; assay type: cell-based; conditions: 72 h; for W1 cellular effect: @ 50 μM
Procedure: as §1

HDAC1 = molecular target: T5, HDAC1 (Homo sapiens, UniProt Q13547); assay: HDAC1 in vitro deacetylation assay (ZMAL); assay type: biochemical; conditions: deacetylation, mean ± SD
T5 construct: purchased BPS Bioscience 50051
T5 sequence (Q13547 whole entry): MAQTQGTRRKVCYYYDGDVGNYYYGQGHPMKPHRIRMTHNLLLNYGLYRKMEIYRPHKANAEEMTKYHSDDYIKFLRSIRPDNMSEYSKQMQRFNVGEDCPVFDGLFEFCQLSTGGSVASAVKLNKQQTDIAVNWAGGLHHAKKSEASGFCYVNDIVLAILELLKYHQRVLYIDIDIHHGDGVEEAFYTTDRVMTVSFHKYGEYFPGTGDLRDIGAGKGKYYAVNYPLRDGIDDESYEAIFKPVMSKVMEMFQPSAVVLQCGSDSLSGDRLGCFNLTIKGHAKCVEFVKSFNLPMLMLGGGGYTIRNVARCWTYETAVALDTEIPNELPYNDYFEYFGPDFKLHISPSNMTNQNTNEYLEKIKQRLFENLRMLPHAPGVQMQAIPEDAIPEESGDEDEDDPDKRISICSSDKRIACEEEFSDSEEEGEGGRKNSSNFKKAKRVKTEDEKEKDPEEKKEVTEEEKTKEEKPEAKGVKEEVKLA

Sirt2 [4] = molecular target: T6, Sirt2 (Homo sapiens, UniProt Q8IXJ6); assay: Sirt2 in vitro deacetylation assay (ZMAL, trypsin-based fluorescence); assay type: biochemical; conditions: for IC50: deacetylation, mean ± SD
T6 construct: the respective sirtuin (Sirt1_134–747, Sirt2_56–356, or Sirt3_118–395) was mixed with; made in house; host or cells: Escherichia coli BL21 Star (DE3)
T6 sequence (Q8IXJ6 56-356): T1 sequence (Q8IXJ6 56-356)

Sirt2 [5] = molecular target: T7, Sirt2 (Homo sapiens, UniProt Q8IXJ6); assay: Cell-based NanoBRET assay for Sirt2 target engagement in HEK293T cells; conditions: tracer SirReal-TAMRA 2 μM
T7 construct: expressed in transfected cells; host or cells: HEK293T
T7 sequence (Q8IXJ6 1-389): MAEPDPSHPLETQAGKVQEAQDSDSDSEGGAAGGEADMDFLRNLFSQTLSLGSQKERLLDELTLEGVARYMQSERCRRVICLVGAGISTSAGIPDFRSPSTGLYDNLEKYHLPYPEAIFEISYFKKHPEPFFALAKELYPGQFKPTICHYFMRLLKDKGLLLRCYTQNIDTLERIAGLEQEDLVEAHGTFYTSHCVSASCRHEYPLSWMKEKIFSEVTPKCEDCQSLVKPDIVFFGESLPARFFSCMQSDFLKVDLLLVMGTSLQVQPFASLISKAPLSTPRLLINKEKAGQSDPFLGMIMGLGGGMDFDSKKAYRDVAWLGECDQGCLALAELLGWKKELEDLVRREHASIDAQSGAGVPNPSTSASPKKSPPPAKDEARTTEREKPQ

inhibition at 20 µM (Sirt2 (demyristoylation)): < 15%
Compound: Cc1cc(C)nc(SCC(=O)Nc2ncc(Cc3cccc(C(=O)NO)c3)s2)n1 [Compound 21, 3-((2-(2-((4,6-Dimethylpyrimidin-2-yl)thio)acetamido)thiazol-5-yl)methyl)-N-hydroxybenzamide]

inhibition at 20 µM (Sirt3): < 15% | IC50 (HDAC6): 9.6 ± 0.3 nM | inhibition at 20 µM (Sirt1): < 15% | IC50 (Sirt2 (demyristoylation)): 34000 ± 2000 nM | IC50 (HDAC1): 600 ± 30 nM | IC50 (Sirt2 [4]): 480 ± 40 nM
Compound: Cc1cc(C)nc(SCC(=O)Nc2ncc(Cc3cccc(OCc4cn(CCOCCOCCOCCOCCC(=O)Nc5ccc(C(=O)NCc6ccc(C(=O)NO)cc6)cc5)nn4)c3)s2)n1 [Compound 44, 4-((4-(1-(4-((3-((2-(2-((4,6-Dimethylpyrimidin-2-yl)thio)acetamido)thiazol-5-yl)methyl)phenoxy)methyl)-1H-1,2,3-triazol-1-yl)-3,6,9,12-tetraoxapentadecan-15-amido)benzamido)methyl)-N-hydroxybenzamide]
MCF-7 cellular effect [1]: ni ^b (ni = no inhibition (cellular effect <20% @ 50 μM)) | PC-3M-luc cellular effect [2]: ni ^b (ni = no inhibition (cellular effect <20% @ 50 μM)) | HGC27 cellular effect [3]: ni ^b (ni = no inhibition (cellular effect <20% @ 50 μM)) | W1 cellular effect (W1 ovarian cancer cells): ni ^b (ni = no inhibition (cellular effect <20% @ 50 μM))

inhibition at 20 µM (Sirt3): < 15% | IC50 (HDAC6): 17 ± 1 nM | inhibition at 20 µM (Sirt1): < 15% | IC50 (Sirt2 (demyristoylation)): 2800 ± 600 nM | IC50 (HDAC1): 460 ± 50 nM | IC50 (Sirt2 [4]): 540 ± 10 nM
Compound: Cc1cc(C)nc(SCC(=O)Nc2ncc(Cc3cccc(OCc4cn(CCOCCOCCOCCOCCOCCOCCOCCOCCOCCOCCC(=O)Nc5ccc(C(=O)NCc6ccc(C(=O)NO)cc6)cc5)nn4)c3)s2)n1 [Compound 45, 4-((4-(1-(4-((3-((2-(2-((4,6-Dimethylpyrimidin-2-yl)thio)acetamido)thiazol-5-yl)methyl)phenoxy)methyl)-1H-1,2,3-triazol-1-yl)-3,6,9,12,15,18,21,24,27,30-decaoxatritriacontan-33-amido)benzamido)methyl)-N-hydroxybenzamide]
MCF-7 cellular effect [1]: ni ^b (ni = no inhibition (cellular effect <20% @ 50 μM)) | PC-3M-luc cellular effect [2]: ni ^b (ni = no inhibition (cellular effect <20% @ 50 μM)) | HGC27 cellular effect [3]: ni ^b (ni = no inhibition (cellular effect <20% @ 50 μM)) | W1 cellular effect (W1 ovarian cancer cells): ni ^b (ni = no inhibition (cellular effect <20% @ 50 μM))

IC50 (HDAC6): 650 ± 40 nM | inhibition at 20 µM (Sirt2 (demyristoylation)): < 15% | IC50 (HDAC1): 17000 ± 1000 nM
Compound: CC(=O)NCc1ccc(C(=O)NO)cc1 [Compound 55, 4-(Acetamidomethyl)-N-hydroxybenzamide]

Compound: O=C(NO)c1ccc(CNC(=O)c2ccccc2)cc1 [Compound 56, 4-(Benzamidomethyl)-N-hydroxybenzamide]
IC50 (HDAC6): 18 ± 1 nM | inhibition at 20 µM (Sirt2 (demyristoylation)): < 15% | IC50 (HDAC1): 810 ± 50 nM

Cellular Sirt2 binding (NanoBRET) (Sirt2 [5]): no Sirt2 binding | EC50 ([1]; Homo sapiens, MCF7, MTT, mean ± SD): 16300 ± 5900 nM | inhibition at 5 µM (Sirt2 (demyristoylation); @ 5 μM, read-out: Sirt2 (demyristoylation) percentual inhibition): < 15% | EC50 ([2]; PC-3M-luc, read-out: PC-3M-luc cell viability EC50, MTS, mean ± SD): 30100 ± 2300 nM | EC50 ([3]; Homo sapiens, HGC-27, MTS, mean ± SD): 21100 ± 1600 nM | EC50 (W1 ovarian cancer cells; MTT, mean ± SD): 33600 ± 4100 nM | inhibition at 20 µM (Sirt2 [4]; @ 20 μM): < 15% | Sirt2 inhibition (Sirt2 [4]; supplementary CSV, column IC50 Sirt2 [µM]): n.i.
Compound: CCCCC(=O)N(CCCC)Cc1ccc(C(=O)NO)cc1 [Compound 57, 4-((N-Butylpentanamido)methyl)-N-hydroxybenzamide]

Compound: O=C(CCCCCCC(=O)Nc1ccccc1)NO [SAHA, suberoylanilide hydroxamic acid, reference compound]
Sirt2 (demyristoylation) percentual inhibition (Sirt2 (demyristoylation); @ 10 μM): 18% @ 10 μM
